Test system: recombinant NL4-3 virus (Renilla luciferase in nef, Gag P373S; NLRluc)
Assay: HIV Cell Culture Assay (luciferase reporter virus in MT-2 cells)
Assay type: cell-based
Details: Renilla, NL43, MT-2 cells infected for 4-5 days with NLRluc recombinants, luciferase activity
Experimental: MT-2 cells and 293T cells were obtained from the NIH AIDS Research and Reference Reagent Program. MT-2 cells were propagated in RPMI 1640 media supplemented with 10% heat inactivated fetal bovine serum, […]. The 293T cells were propagated in DMEM media supplemented with 10% heat inactivated fetal bovine serum (FBS), 100 units/mL penicillin G and 100 μg/mL streptomycin. The proviral DNA clone of NL4-3 was obtained from the NIH AIDS Research and Reference Reagent Program. A recombinant NL4-3 virus, in which a section of the nef gene from NL4-3 was replaced with the Renilla luciferase gene, was used as a reference virus. In addition, residue Gag P373 was converted to P373S. Briefly, the recombinant virus was prepared by transfection of the altered proviral clone of NL4-3. Transfections were performed in 293T cells using LipofectAMINE PLUS from Invitrogen (Carlsbad, Calif.), according to manufacturer's instruction. The virus was titered in MT-2 cells using luciferase enzyme activity as a marker. Luciferase was quantitated using the Dual Luciferase kit from Promega (Madison, Wis.), with modifications to the manufacturer's protocol. The diluted Passive Lysis solution was pre-mixed with the re-suspended Luciferase Assay Reagent and the re-suspended Stop & Glo Substrate (2:1:1 ratio). Fifty (50) μL of the mixture was added to each aspirated well on assay plates and luciferase activity was measured immediately on a Wallac TriLux (Perkin-Elmer). Antiviral activities of inhibitors toward the recombinant virus were quantified by measuring luciferase activity in cells infected for 4-5 days with NLRluc recombinants in the presence serial dilutions of the inhibitor. Table 1 is the key for the data in Table 2.

| SMILES | EC50 [nM] | EC50 (reported as group A/B) [nM] |
| --- | --- | --- |
| C=C(C)[C@@H]1CC[C@]2(NC(=O)CN3C[C@@H]4CC[C@H]3C4)CC[C@]3(C)[C@H](CC[C@@H]4[C@@]5(C)CC=C(c6ccc(C(=O)O)cc6)C(C)(C)[C@@H]5CC[C@]43C)[C@@H]12 [Example 1, 4-((1R,3aS,5aR,5bR,7aR,11aS,11bR,13aR,13bR)-3a-(2-((1S,4R)-2-azabicyclo[2.2.1]heptan-2-yl)acetamido)-5a,5b,8,8,11a-pentamethyl-1-(prop-1-en-2-yl)-2,3,3a,4,5,5a,5b,6,7,7a,8,11,11a,11b,12,13,13a,13b-octadecahydro-1H-cyclopenta[a]chrysen-9-yl)benzoic acid] | 3.65 |  |
| C=C(C)[C@@H]1CC[C@]2(NCCN3C[C@@H]4C[C@H]3CS4(=O)=O)CC[C@]3(C)[C@H](CC[C@@H]4[C@@]5(C)CC=C(C6=CCC(C(=O)O)CC6)C(C)(C)[C@@H]5CC[C@]43C)[C@@H]12 (stereo partly drawn) [Example B2, 4-((1R,3aS,5aR,5bR,7aR,11aS,11bR,13aR,13bR)-3a-((2((1S,4S)-2,2-dioxido-2-thia-5-azabicyclo[2.2.1]heptan-5-yl)ethyl)amino)-5a,5b,8,8,11a-pentamethyl-1-(prop-1-en-2-yl)-2,3,3a,4,5,5a,5b,6,7,7a,8,11,11a,11b,12,13,13a,13b-octadecahydro-1H-cyclopenta[a]chrysen-9-yl)cyclohex-3-enecarboxylic acid] | 1.18 |  |
| C=C(C)[C@@H]1CC[C@]2(NCCN3CC4(C3)CN(S(C)(=O)=O)C4)CC[C@]3(C)[C@H](CC[C@@H]4[C@@]5(C)CC=C(c6ccc(C(=O)O)cc6)C(C)(C)[C@@H]5CC[C@]43C)[C@@H]12 [Example 16, 4-((1R,3aS,5aR,5bR,7aR,11aS,11bR,13 aR,13bR)-5a,5b,8,8,11a-pentamethyl-3a-((2-(6-(methylsulfonyl)-2,6-diazaspiro[3.3]heptan-2-yl)ethyl)amino)-1-(prop-1-en-2-yl)-2,3,3a,4,5,5a,5b,6,7,7a,8,11,11a,11b,12,13,13a,13b-octadecahydro-1H-cyclopenta[a]chrysen-9-yl)benzoic acid] | 1.64 |  |
| C=C(C)[C@@H]1CC[C@]2(N(CCO)CCN3C[C@@H]4C[C@H]3CS4(=O)=O)CC[C@]3(C)[C@H](CC[C@@H]4[C@@]5(C)CC=C(c6ccc(C(=O)O)cc6)C(C)(C)[C@@H]5CC[C@]43C)[C@@H]12 [Example 6, 4-((1R,3aS,5aR,5bR,7aR,11aS,11bR,13aR,13bR)-3a-((2-((1S,4S)-2,2-dioxido-2-thia-5-azabicyclo[2.2.1]heptan-5-yl)ethyl)(2-hydroxyethyl)amino)-5a,5b,8,8,11a-pentamethyl-1-(prop-1-en-2-yl)-2,3,3a,4,5,5a,5b,6,7,7a,8,11,11a,11b,12,13,13a,13b-octadecahydro-1H-cyclopenta[a]chrysen-9-yl)benzoic acid] |  | < 100 |
| C=C(C)[C@@H]1CC[C@]2(NCCN3C[C@@H]4C[C@H]3CS4(=O)=O)CC[C@]3(C)[C@H](CC[C@@H]4[C@@]5(C)CC=C(c6ccc(C(=O)O)cc6)C(C)(C)[C@@H]5CC[C@]43C)[C@@H]12 [Example 5, 4-((1R,3aS,5aR,5bR,7aR,11aS,11bR,13aR,13bR)-3a-((2-((1S,4S)-2,2-dioxido-2-thia-5-azabicyclo[2.2.1]heptan-5-yl)ethyl)amino)-5a,5b,8,8,11a-pentamethyl-1-(prop-1-en-2-yl)-2,3,3a,4,5,5a,5b,6,7,7a,8,11,11a,11b,12,13,13a,13b-octadecahydro-1H-cyclopenta[a]chrysen-9-yl)benzoic acid] |  | < 100 |

Source: US8889854B2, “C-17 bicyclic amines of triterpenoids with HIV maturation inhibitory activity” (priority 2012, dated 2014)
